In US10047031B2, “Organic compounds” (GIVAUDAN SA, priority 2014, dated 2018):

Key:
mice = conditions: mouse, in vivo; cited from earlier work
primates = conditions: cited from earlier work
guinea-pigs = conditions: guinea pig, in vivo; cited from earlier work
rat hepatocytes = test: in vitro metabolism in rat hepatocytes in suspension (GC-MS); type: in vitro ADME; conditions: incubated with hepatocytes isolated from rats, 'substantially no' = below limit of detection, i.e. <1%
Text: Decrease of Lilial™ and the compound released by the precursor of the present invention, and formation of the corresponding benzoic acid derivative may be analysed by GC-MS.
By “substantially no benzoic acid derivative” is meant that the concentration of said derivative is below the limit of detection, i.e. <1%. As such, the precursor releasing the compound of formula (I) provides perfumers with an eminently suitable surrogate for the valuable yet problematic Lilial™.

Structure (SMILES)	effects (reproductive toxicity) (mice)	effects (reproductive toxicity) (primates)	effects (reproductive toxicity) (guinea-pigs)	enzymatic degradation to / formation of the corresponding benzoic acid derivative (rat hepatocytes)	enzymatic degradation to / formation of the corresponding benzoic acid derivative (rat hepatocytes; listed as compound released by the precursor of the present invention)
CC(C=O)Cc1ccc(C(C)(C)C)cc1 (centres unmarked) [Lilial™, 3-(4-tert-butylphenyl)-2-methylpropanal]	No effects	No effects	No effects	–	–
Cc1cc(CC(C)C)ccc1CCC=O [compound of formula (I), 3-(4-isobutyl-2-methylphenyl)propanal]	–	–	–	no, or substantially no	not susceptible
